{"source": "patent US20260216238A1", "about": "“TETRATHIOMOLYBDIC ACID FOR USE IN TREATING COPPER METABOLISM-ASSOCIATED DISEASES OR DISORDERS (WILSON DISEASE)” (Alexion Pharmaceuticals, Inc., priority 2023, published 2026)", "tested_on": "patients with Wilson disease (WD)", "experiment": "UWDRS Part III total score, functional subscale and individual items (neurological examination)", "assay_type": "in vivo, human", "method": "The UWDRS scoring system was developed specifically for the motor and movement disorders associated with chronic copper neurotoxicity in WD. Some individual items/subscales of the UWDRS Part III (arising from a chair, gait, handwriting, and speech) in addition to the UWDRS Parts I, II, and III overall, were assessed to further define the range of burdensome signs and symptoms of WD, so as to further understand the assessment of treatment effects on patients with WD. The UWDRS scores for consciousness (Part I) and abnormal neurologic examination findings (Part III) will be determined by a trained neurologist rater who is blinded to study treatment randomization. These scores were used to provide a rigorous dataset for evaluating changes from baseline.\nUnified Wilson Disease Rating Scale (Parts I, II, and III): The UWDRS is a clinical rating scale designed to evaluate the neurological manifestations of WD that generally can be divided into 3 movement disorder syndromes: dystonic, ataxic, and Parkinsonian syndrome. The UWDRS comprises 3 parts: UWDRS Part I (level of consciousness, item 1), UWDRS Part II (a patient-reported review of daily activity items [disability], items 2 to 11), and UWDRS Part III (a detailed neurological examination, items 12 to 34).\nThe UWDRS Part I and Part III were assessed by a neurologist who is blinded to the treatment randomization, while UWDRS Part II may be reported to a non-blinded member of the study team by the patient, family member, or caregiver. The UWDRS has not been formally evaluated in adolescents. However, the components of Part I (level of consciousness), Part II (patient or caregiver-reported disability) and Part III (neurologic examination findings) were not fundamentally different between adults and adolescents. Patients aged 12 years and older were expected to be able to comply with UWDRS assessments.\nPooled results from all such participants will be integrated together into one timeline to allow analyses of changes in UWDRS, long-term copper control, and long-term safety laboratory data.\nEndpoints (directly measured non-ceruloplasmin-bound copper [dNCC], UWDRS III (rater blinded) total and individual item scores, Clinical Global Impression-Improvement [CGI-I]) were evaluated at baseline (BL) and Week 48 (W48). Normalization (score decrease to 0), improvement (≥1 point decrease), stability (no change), or worsening (≥1 point increase) of total and individual UWDRS III item scores were evaluated at W48.", "key": {"[1]": {"conditions": "Week 144, Study 301 TTM long term set"}, "[2]": {"conditions": "difference of changes Wk 48 - BL"}}, "data": [{"substance": "bis-choline tetrathiomolybdate [TTM]", "values": [{"measurement": "UWDRS Part III-handwriting (0-4) change from baseline, Mean", "setting": "[1]", "result": "−0.5"}, {"measurement": "UWDRS Part III-speech (0-4) change from baseline, LSM", "setting": "[1]", "result": "−0.3"}, {"measurement": "UWDRS Part III-speech (0-4) change from baseline, Mean", "setting": "[1]", "result": "−0.2"}, {"measurement": "UWDRS symptom: Arising from chair", "setting": "Wk 48", "result": 86}, {"measurement": "UWDRS symptom: Arm and hand Dystonia", "setting": "Wk 48", "result": 67}, {"measurement": "UWDRS symptom: Cervical Dystonia", "setting": "Wk 48", "result": 82}, {"measurement": "UWDRS symptom: Chorea", "setting": "Wk 48", "result": 91}, {"measurement": "UWDRS symptom: Facial Expression", "setting": "Wk 48", "result": 58}, {"measurement": "UWDRS symptom: Finger Taps", "setting": "Wk 48", "result": 59}, {"measurement": "UWDRS symptom: Finger to Nose", "setting": "Wk 48", "result": 76}, {"measurement": "UWDRS symptom: Gait", "setting": "Wk 48", "result": 63}, {"measurement": "UWDRS symptom: Handwriting", "setting": "Wk 48", "result": 71}, {"measurement": "UWDRS symptom: Head Tremor", "setting": "Wk 48", "result": 89}, {"measurement": "UWDRS symptom: Involuntary Crying", "setting": "Wk 48", "result": 99}, {"measurement": "UWDRS symptom: Jaw Tremor", "setting": "Wk 48", "result": 99}, {"measurement": "UWDRS symptom: Leg Ability", "setting": "Wk 48", "result": 66}, {"measurement": "UWDRS symptom: Oculomotor", "setting": "Wk 48", "result": 87}, {"measurement": "UWDRS symptom: Postural Arm Tremor", "setting": "Wk 48", "result": 58}, {"measurement": "UWDRS symptom: Postural Leg Tremor", "setting": "Wk 48", "result": 73}, {"measurement": "UWDRS symptom: Posture", "setting": "Wk 48", "result": 71}, {"measurement": "UWDRS symptom: Pyramidal Signs", "setting": "Wk 48", "result": 87}, {"measurement": "UWDRS symptom: RAM of Hands", "setting": "Wk 48", "result": 62}, {"measurement": "UWDRS symptom: Rigidity", "setting": "Wk 48", "result": 72}, {"measurement": "UWDRS symptom: Speech", "setting": "Wk 48", "result": 51}, {"measurement": "UWDRS symptom: Stereotyped Actions", "setting": "Wk 48", "result": 89}, {"measurement": "UWDRS symptom: Tremor at rest", "setting": "Wk 48", "result": 76}, {"measurement": "UWDRS symptom: Wing-beating tremor", "setting": "Wk 48", "result": 67}, {"measurement": "UWDRS symptom: Arising from chair, Change (Wk 48 - BL)", "setting": "Wk 48 - BL", "result": 1}, {"measurement": "UWDRS symptom: Arm and hand Dystonia, Change (Wk 48 - BL)", "setting": "Wk 48 - BL", "result": 3}, {"measurement": "UWDRS symptom: Cervical Dystonia, Change (Wk 48 - BL)", "setting": "Wk 48 - BL", "result": 8}, {"measurement": "UWDRS symptom: Chorea, Change (Wk 48 - BL)", "setting": "Wk 48 - BL", "result": 1}, {"measurement": "UWDRS symptom: Facial Expression, Change (Wk 48 - BL)", "setting": "Wk 48 - BL", "result": 1}, {"measurement": "UWDRS symptom: Finger Taps, Change (Wk 48 - BL)", "setting": "Wk 48 - BL", "result": 15}, {"measurement": "UWDRS symptom: Finger to Nose, Change (Wk 48 - BL)", "setting": "Wk 48 - BL", "result": 9}, {"measurement": "UWDRS symptom: Gait, Change (Wk 48 - BL)", "setting": "Wk 48 - BL", "result": 4}, {"measurement": "UWDRS symptom: Handwriting, Change (Wk 48 - BL)", "setting": "Wk 48 - BL", "result": 16}, {"measurement": "UWDRS symptom: Head Tremor, Change (Wk 48 - BL)", "setting": "Wk 48 - BL", "result": 5}, {"measurement": "UWDRS symptom: Involuntary Crying, Change (Wk 48 - BL)", "setting": "Wk 48 - BL", "result": 0}, {"measurement": "UWDRS symptom: Jaw Tremor, Change (Wk 48 - BL)", "setting": "Wk 48 - BL", "result": 0}, {"measurement": "UWDRS symptom: Leg Ability, Change (Wk 48 - BL)", "setting": "Wk 48 - BL", "result": 4}, {"measurement": "UWDRS symptom: Oculomotor, Change (Wk 48 - BL)", "setting": "Wk 48 - BL", "result": "−2"}, {"measurement": "UWDRS symptom: Postural Arm Tremor, Change (Wk 48 - BL)", "setting": "Wk 48 - BL", "result": 9}, {"measurement": "UWDRS symptom: Postural Leg Tremor, Change (Wk 48 - BL)", "setting": "Wk 48 - BL", "result": 5}, {"measurement": "UWDRS symptom: Posture, Change (Wk 48 - BL)", "setting": "Wk 48 - BL", "result": 4}, {"measurement": "UWDRS symptom: Pyramidal Signs, Change (Wk 48 - BL)", "setting": "Wk 48 - BL", "result": "−2"}, {"measurement": "UWDRS symptom: RAM of Hands, Change (Wk 48 - BL)", "setting": "Wk 48 - BL", "result": 14}, {"measurement": "UWDRS symptom: Rigidity, Change (Wk 48 - BL)", "setting": "Wk 48 - BL", "result": 14}, {"measurement": "UWDRS symptom: Speech, Change (Wk 48 - BL)", "setting": "Wk 48 - BL", "result": 7}, {"measurement": "UWDRS symptom: Stereotyped Actions, Change (Wk 48 - BL)", "setting": "Wk 48 - BL", "result": "−4"}, {"measurement": "UWDRS symptom: Tremor at rest, Change (Wk 48 - BL)", "setting": "Wk 48 - BL", "result": 1}, {"measurement": "UWDRS symptom: Wing-beating tremor, Change (Wk 48 - BL)", "setting": "Wk 48 - BL", "result": 3}, {"measurement": "UWDRS symptom: Arising from chair, Difference (TTM − SoC)", "setting": "[2]", "result": 4}, {"measurement": "UWDRS symptom: Arm and hand Dystonia, Difference (TTM − SoC)", "setting": "[2]", "result": 3}, {"measurement": "UWDRS symptom: Cervical Dystonia, Difference (TTM − SoC)", "setting": "[2]", "result": 5}, {"measurement": "UWDRS symptom: Chorea, Difference (TTM − SoC)", "setting": "[2]", "result": 6}, {"measurement": "UWDRS symptom: Facial Expression, Difference (TTM − SoC)", "setting": "[2]", "result": 4}, {"measurement": "UWDRS symptom: Finger Taps, Difference (TTM − SoC)", "setting": "[2]", "result": 20}, {"measurement": "UWDRS symptom: Finger to Nose, Difference (TTM − SoC)", "setting": "[2]", "result": 6}, {"measurement": "UWDRS symptom: Gait, Difference (TTM − SoC)", "setting": "[2]", "result": 2}, {"measurement": "UWDRS symptom: Handwriting, Difference (TTM − SoC)", "setting": "[2]", "result": 13}, {"measurement": "UWDRS symptom: Head Tremor, Difference (TTM − SoC)", "setting": "[2]", "result": 9}, {"measurement": "UWDRS symptom: Involuntary Crying, Difference (TTM − SoC)", "setting": "[2]", "result": 3}, {"measurement": "UWDRS symptom: Jaw Tremor, Difference (TTM − SoC)", "setting": "[2]", "result": 0}, {"measurement": "UWDRS symptom: Leg Ability, Difference (TTM − SoC)", "setting": "[2]", "result": 11}, {"measurement": "UWDRS symptom: Oculomotor, Difference (TTM − SoC)", "setting": "[2]", "result": 9}, {"measurement": "UWDRS symptom: Postural Arm Tremor, Difference (TTM − SoC)", "setting": "[2]", "result": 8}, {"measurement": "UWDRS symptom: Postural Leg Tremor, Difference (TTM − SoC)", "setting": "[2]", "result": 9}, {"measurement": "UWDRS symptom: Posture, Difference (TTM − SoC)", "setting": "[2]", "result": 1}, {"measurement": "UWDRS symptom: Pyramidal Signs, Difference (TTM − SoC)", "setting": "[2]", "result": 4}, {"measurement": "UWDRS symptom: RAM of Hands, Difference (TTM − SoC)", "setting": "[2]", "result": 31}, {"measurement": "UWDRS symptom: Rigidity, Difference (TTM − SoC)", "setting": "[2]", "result": 5}, {"measurement": "UWDRS symptom: Speech, Difference (TTM − SoC)", "setting": "[2]", "result": 0}, {"measurement": "UWDRS symptom: Stereotyped Actions, Difference (TTM − SoC)", "setting": "[2]", "result": 1}, {"measurement": "UWDRS symptom: Tremor at rest, Difference (TTM − SoC)", "setting": "[2]", "result": 4}, {"measurement": "UWDRS symptom: Wing-beating tremor, Difference (TTM − SoC)", "setting": "[2]", "result": 9}]}]}
